Data published in publication PMC8386742, “Discovery of N-aryl sulphonamide-quinazoline derivatives as anti-gastric cancer agents in vitro and in vivo via activating the Hippo signalling pathway” (Journal of Enzyme Inhibition and Medicinal Chemistry, 2021).

What was measured:
SGC-7901 cells = assay: MTT antiproliferative assay, SGC-7901 gastric cancer cells; format: cell-based; conditions: Homo sapiens, SGC-7901, exposure for 48 h
Procedure: (§1) Furthermore, MGC-803 cells were more sensitive to the compounds than HCT-116, PC-3 cells MCF-7 cells. Moreover, we chose two other common gastric cancer cell lines (HGC-27 and SGC-7901) and another two normal cells GES-1 and HUEVC cells to examine for the inhibitory activity of compound 9i.
(§2) Cell lines used were cultured in humidified incubator in a humidified atmosphere of 5% CO2 and 95% air. The RPMI-1640 medium was supplemented with 10% foetal bovine serum, penicillin (100 U/ml) and streptomycin (0.1 mg/ml).
(§3) Cell lines were seeded into 96-well plates and incubated for 24 h. Then cells were treated with different concentrations of compounds. And after another 48 h, MTT reagent (20 μL per well) was added to each well and then incubated at 37 °C for 4 h. After the suspension was discarded, formazan was then dissolved with DMSO. Absorbencies of formazan solution were measured at 490 nm. The IC50 values of tested compounds were calculated by SPSS version 17.0.

HGC-27 cells = assay: MTT antiproliferative assay, HGC-27 gastric cancer cells; format: cell-based
Procedure: as §1, §2, §3

MGC-803 cells = assay: Annexin V-FITC/PI cell apoptosis assay, MGC-803 cells; format: cell-based, human; conditions: MGC-803, high dose, 48 h
Procedure: Bcl-2 regulated by the Hippo/YAP plays an important role in cell apoptosis. Therefore, we next examined the effects of compound 9i on cell apoptosis. MGC-803 and SGC-7901 cells were treated with compound 9i for 48 h, as shown in Figures 5(A,B), the nuclei of gastric cancer are dense and fragmented, and cells became round, small, and was induced to die. To determine the influence of compound 9i on cell death, MGC-803 and SGC-7901 cells treated with compound 9i were stained with Annexin V-FITC/PI. As shown in Figure 5(C), the high dose compound 9i treatment group induced over 60% of cell apoptosis at 48 h. As shown in Figure 5(D), some other apoptosis-related proteins were also regulated by compound 9i in MGC-803 and SGC-7901 cells. Compound 9i caused dose-dependent decreases of anti-apoptosis proteins c-IAP and Mcl-1. […] Mitochondrial membrane potential depolarisation and translocation from the mitochondria to the cytoplasm of cytochrome c are two key steps involved in the intrinsic apoptosis pathway. As shown in Figures 5(F–H), compound 9i depolarised mitochondrial membrane potential and induced the translocation of cytochrome c.
Figure 5. Compound 9i induced apoptosis in MGC-803 and SGC-7901 cells. Density ratios relative to β-Actin were shown on the top of each Western blotting band. […] The cell line of each row appears only in tiny plot titles that cannot be read with certainty. […]

[1] = tested on: MGC-803 and SGC-7901 cells; assay: Colony formation assay in gastric cancer cells; format: cell-based; conditions: 150 nM, 7 days
Excerpt: Because of the potent inhibitory activity on cell viability of compound 9i, we next explored the effects of compound 9i on cell proliferation in MGC-803 and SGC-7901 cells.
Figure 6. Gastric cancer cell proliferation inhibition inhibited by 9i. Density ratios relative to β-Actin were shown on the top of each Western blotting band. (A,B) Cell growth curves of in MGC-803 and SGC-7901 cells after the treatment with indicated concentrations of 9i for different hours; (C,D). Gastric cancer cell colony formation, cells were treated for 7 days; (E) Cell cycle distribution of MGC-803 and SGC-7901 after the treatment with indicated concentrations of 9i for 24 h; (F,G) Cell cycle related proteins in gastric cancer cells after the treatment with indicated concentrations of 9i for 24 h.
In this work, some other assays including colony formation assay, cell apoptosis assay and immunostaining assay were referred to our previous work[35]^,[36].

[2] = In vivo toxicity in MGC-803 bearing mice (body weight, blood biochemistry, H&E); design: species or system nude mice
Procedure: The bodyweight of mice was recorded during the treatment every 3 days. […] Blood samples and organs were collected after mice were executed.
A human gastric cancer subcutaneous transplantation tumour model was established with MGC-803 cells. After the tumour volume reaches 100 mm3 the MGC-803 bearing mice were randomised into 3 groups and intraperitoneal injection with normal saline or drugs continuously for 21 days. Tumour volume was measured every 3 days (Length × Width2/2). Mice were executed after treatment. 500 μL blood samples was collected each mouse, samples were then centrifuged at 2000 g for 10 min for biochemistry analysis. Tumour and organs tissues were harvested for H&E staining or immunochemistry detection. The experiments in the study were performed comply with the protocols approved by the Institutional Animal Care and Use Committee, Zhengzhou University.

Compound: COc1ccc(S(=O)(=O)N(Cc2nc(C)c3ccccc3n2)c2cc(OC)c(OC)c(OC)c2)cc1 [Compound 9i, 4-Methoxy-N-((4-methylquinazolin-2-yl)methyl)-N-(3,4,5-trimethoxyphenyl) benzene-sulfonamide]
- IC50 (SGC-7901 cells): 376 nM
- IC50 (HGC-27 cells; Homo sapiens, HGC-27, MTT, exposure for 48 h): 458 nM
- inhibition ratio against HGC-27 cells (HGC-27 cells; high dosage group, 48 h): above 50%
- cell apoptosis (MGC-803 cells): over 60%
- colony formation [1]: significantly decreased
- blood biochemical indexes (ALT, AST, T-BIL, UA, CRE, BUN) versus vehicle control group ([2]; blood samples after execution): no significant difference
- toxicity in vivo ([2]; body weight, blood biochemistry, H&E staining of organs): did not show obvious toxicity in vivo
- bodyweight of mice versus vehicle control group ([2]; recorded every 3 days during 21 days treatment): did not show a significant difference
